Experimental findings from patent US9670184B2, “Amorphous allisartan isoproxil, preparation method therefor, and pharmaceutical composition containing amorphous allisartan isoproxil” (SHENZHEN SALUBRIS PHARMACEUTICALS CO. LTD, priority 2013, dated 2017) are described below.

Type in all cases: physicochemical
Data set [1] in a line: Repose angle of powders by fixed-funnel method. As to conditions: powder sieved through 100-mesh screen. The text has this: (§1) The powders of experiment 1 and 3 were pulverized and then sieved through a 100-mesh screen to obtain powders with particle size similar to the crystal powder. Then the repose angles of the powders were detected respectively by using a fixed-funnel method; and the bulk densities of the powders were detected respectively by using measurement in a graduated cylinder (Method I of Bulk Density disclosed in Ph. Eur), and the results were shown in the table below: […]

A short description of data set [2]: Bulk density of powders, measurement in a graduated cylinder (Method I of Bulk Density, Ph. Eur). Particulars: powder sieved through 100-mesh screen.
Excerpt: as §1

Data set [3] is described as follows: Electrostatic phenomenon of the dried powder (observation). Particulars: powder after drying.

Consider `CCCCc1nc(Cl)c(C(=O)OCOC(=O)OC(C)C)n1Cc1ccc(-c2ccccc2-c2nnn[nH]2)cc1` [Amorphous allisartan isoproxil obtained from experiment 1] [2-butyl-4-chloro-1-[2′-(1H-tetrazol-5-yl)-1,1′-biphenyl-methyl]-imidazole-5-carboxylic acid, 1-[(isopropoxy)-carbonyloxy]methyl ester], for which, in data set [1], the “Repose Angle” value is 33-36 °. Further, the “Bulk Density” value in data set [2] amounted to 0.77 g/mL. Moreover, the Electrostatic phenomenon result in data set [3] is listed as “no obvious electrostatic phenomenon”.
Take `CCCCc1nc(Cl)c(C(=O)OCOC(=O)OC(C)C)n1Cc1ccc(-c2ccccc2-c2nnn[nH]2)cc1` [Amorphous allisartan isoproxil obtained from experiment 3] [2-butyl-4-chloro-1-[2′-(1H-tetrazol-5-yl)-1,1′-biphenyl-methyl]-imidazole-5-carboxylic acid, 1-[(isopropoxy)-carbonyloxy]methyl ester]: the “Repose Angle” value in data set [1] was 33-36 °. Besides, the “Bulk Density” value in data set [2] was determined as 0.79 g/mL. Further, the Electrostatic phenomenon result in data set [3] was “no obvious electrostatic phenomenon”.
Consider `CCCCc1nc(Cl)c(C(=O)OCOC(=O)OC(C)C)n1Cc1ccc(-c2ccccc2-c2nnn[nH]2)cc1` [Experiment 2, 2-butyl-4-chloro-1-[2′-(1H-tetrazol-5-yl)-1,1′-biphenyl-methyl]-imidazole-5-carboxylic acid, 1-[(isopropoxy)-carbonyloxy]methyl ester], for which, in data set [3], the Electrostatic phenomenon result is “no obvious electrostatic phenomenon”.
`CCCCc1nc(Cl)c(C(=O)OCOC(=O)OC(C)C)n1Cc1ccc(-c2ccccc2-c2nnn[nH]2)cc1` [Patent Crystal, 2-butyl-4-chloro-1-[2′-(1H-tetrazol-5-yl)-1,1′-biphenyl-methyl]-imidazole-5-carboxylic acid, 1-[(isopropoxy)-carbonyloxy]methyl ester, reference compound]: the “Repose Angle” value in data set [1] is on record as 48-53 °. The “Bulk Density” value in data set [2] came out at 0.51 g/mL. Further, the Electrostatic phenomenon result in data set [3] is “obvious electrostatic phenomenon”.
